“And” between values parts separate entries of the source, which are not always exact repeats. Equal values may be shown once.
Key:
[1] = tested on: APP mRNA 5′ UTR (pSV2(APP)CAT reporter); experiment: CAT reporter activity in pSV2(APP)CAT-transfected astrocytoma cells; type: cell-based, human; conditions: for increase in CAT activity, maximal: pSV2(APP)CAT-transfected astrocytoma cells
Method: The pSV2(APP)CAT construct contains the APP gene 5′ UTR in between the SmaI and the NruI sites (+52 nt and +142 nt from the 5′ cap site respectively). pSV2(APP)CAT was prepared by two steps of subcloning. (1) A 3 kb SmaI-HindIII fragment containing the APP gene, including the coding region and a segment of the 3′ UTR was subcloned into compatible StuI-HindIII sites unique to the 5′ UTR of the CAT gene in the pSV2CAT expression vector. (2) The APP gene fragment in between the NruI and HindIII sites was removed from the construct. The restriction sites were then blunt-ended and religated. In the pSV2(APP)CAT transfectants, 90 nt of the APP gene 5′ UTR were expressed as part of a chimeric […] 5′ leader in the 1.5 kb APP/CAT transcript. The pSV2CAT construct contains the 5′ end of the CAT gene inserted into the unique polylinker site in pBluescript. A 250 nt HindIII/EcoRI fragment from the CAT gene in pSV2CAT was subcloned into the pBS vector (Stratagene). The CAT gene fragment codes for 36 nt of the CAT gene 5′ UTR and 218 bp of the 5′ end of the coding sequence of the CAT gene.
Astrocytoma and neuroblastoma cells were transfected with pSV2CAT or pSV2(APP)CAT by lipofection. Briefly, lipofectamine reagent (Boehringer) was added to DMEM (without serum) and allowed to sit 30 minutes at room temperature. Plasmids (10 μg) in an equal volume of DMEM were then added, and, after sitting for 45 minutes at room temperature, the lipid/DNA solution was added to 60% confluent cells on 100×20 mm cell culture plates. After 4 hours, this solution was removed, and the cells were washed twice in DMEM (without serum). Fresh DMEM medium (containing 10% fetal calf serum) was added. At this time, treatments were administered which included: (1) 0.5 ng/ml IL-1α; (2) 0.5 ng/ml IL-1β; (3) 5 μM Fe2TF (holo-transferrin); and (4) unstimulated controls. […]
After harvesting, cells were resuspended in 100 μl 0.25 M Tris, pH 7.8, and subjected to three cycles of freezing (liquid nitrogen) and […] (37° C.) to lyse cells. […] Protein concentration was determined by a Biorad assay, and exactly 20 μg of lysate was added to a CAT reaction mix containing 50 μl 1M Tris, pH 7.8, 20 μl acetylcoenzyme-A (3.5 mg/ml) and […] ^14C-labeled chloramphenicol (25 mCi/ml). […] For quantitative analysis, the areas on the TLC plates which aligned with dots on the film were excised and the radioactivity was counted in 5 ml of scintillation cocktail (Econofluor) using a scintillation counter (Hewlett Packard). In some experiments, CAT activity was measured by counting the amount of CAT reaction product diffusing into liquid scintillation fluid as described previously (Rogers, et al., Nucl. Acid Res. 22:2678 (1994)). […]

[2] = tested on: ferritin-H subunit synthesis in astrocytoma (U373MG) cells; experiment: Ferritin-H subunit synthesis, astrocytoma cells; type: cell-based, human; conditions: 0.5 ng/ml, 16 hrs
Method: (§1) Primary human astrocytes were prepared by trypsinization of human fetal brain tissue by a previously described method (Das, et al., Neuron 14; 447 (1995)). Cells were seeded onto poly-L-lysine (10 μg/ml) coated plates and were grown to 70% confluence in DMEM medium, (low glucose) supplemented with 10% fetal bovine serum. In order to eliminate microglia, the cultures were treated with 5 mM H-Leu-O-methylester (Guilian, J. Neurosci. Res. 18:155 (1987)). For immunofluorescence, cells were replated at a density of 100,000 cells per 60-mm petri dish on poly-L-lysine coated glass coverslips and grown for 24 hours in 0.5 ml of medium to allow the cells to attach. The presence of glial fibrillary acidic protein (GFAP) was detected by immunofluorescent staining of formaldehyde fixed cells using a 1:10 dilution of rabbit IgG1 antibody specific for human GFAP. Primary GFAP-specific antibody was added to the coverslips for 30 minutes at room temperature in phosphate buffered saline and 10% goat serum. The secondary antibodies used were goat anti-rabbit IgG conjugated to fluorescein isothiocyanate at a dilution of 1:100 (Boehringer). Fluorescence microscopy scored the cells used in the metabolic experiments as 95% pure astrocytes. […] The U373MG astrocytoma cell line was cultured on 100 mm uncoated dishes to 60-80% confluence in DMEM medium supplemented with 10% fetal bovine serum. […]

[3] = tested on: APP synthesis in human astrocytoma (U373MG) cells; experiment: APP synthesis, [35S]-methionine labeling and immunoprecipitation, astrocytoma cells; type: cell-based; conditions: 0.5 ng/ml, 16 hrs, maximal
Method: as §1

Substance	increase in CAT activity, average ([1]; pSV2(APP)CAT transfectants, matching experiments, average) [fold]	increase in CAT activity, maximal [1]	enhanced rate of ferritin-H subunit synthesis [2] [fold]	increase in rate of APP synthesis [3] [fold]	enhancement of CAT activity, parallel transfection ([1]; pSV2(APP)CAT transfectants, parallel to the pSV2CAT transfection) [fold]
interleukin-1α [IL-1α]	2.3	3 fold and 4 fold	5	2.8	–
interleukin-1β [IL-1β]	–	4 fold	5	4.3	3

From US6849405B2, “Translation enhancer element of the human amyloid precursor protein gene” (The Brigham and Women's Hospital, Inc., priority 1997, dated 2005)
